Measured values as given in article PMC2994747, “Molecular Characterization of c-Abl/c-Src Kinase Inhibitors Targeted against Murine Tumour Progenitor Cells that Express Stem Cell Markers” (PLoS ONE, 2010).
Read-outs that look alike come from different tables or passages of the source.

Assays:
[1] = test system: GammaA3; assay: MTS cell viability assay; type: cell-based, mouse
Description: (§1) Three human and eleven murine cancer cell lines were used. The human NSCLC cell line A549 (ACC 107) and the human colorectal carcinoma cell line CaCo2 (ACC 169) were obtained from Deutsche Sammlung von Mikroorganismen und Zellkulturen (DSMZ, Braunschweig, Germany). The human hepatocellular carcinoma cell line HepG2 (HB-8065) was obtained from American Type Culture Collection (Manassas, VA, USA). The 11 murine NSCLC cell lines were established as described recently. Cells were grown in monolayer cultures in DMEM containing 10% foetal calf serum, 4 mmol/l L-glutamine and 2% Penicillin/Streptomycin at 37°C in a humidified atmosphere of 95% air and 5% CO2.
(§2) Cell culture viability was monitored by CellTiter96® AQueous One Solution Cell Proliferation Assay (Promega GmbH, Mannheim, Germany). The cells were seeded in triplicates in 96-well microtitre plates and treated with the dual kinase inhibitors or vehicle (0.2% DMSO). After 24 h or 96 h of treatment the MTS tetrazolium reagent was added to the cells and incubated for 1 h. Absorbance at 490 nm was assayed with a Victor3 Wallac 1420 Multilabel counter (PerkinElmer, Waltham, MA, USA).

[2] = test system: BetaD5; assay: MTS cell viability assay; type: cell-based, mouse
Description: as §1, §2

[3] = test system: A2C12; assay: MTS cell viability assay; type: cell-based, mouse
Description: as §1, §2

[4] = test system: GammaD12; assay: MTS cell viability assay; type: cell-based, mouse
Description: as §1, §2

[5] = test system: A549; assay: MTS cell viability assay; type: cell-based, human
Description: as §1, §2

[6] = test system: HepG2; assay: MTS cell viability assay; type: cell-based, human
Description: as §1, §2

[7] = test system: CaCo2; assay: MTS cell viability assay; type: cell-based, human
Description: as §1, §2

[8] = test system: A549; assay: Cell cycle analysis by flow cytometry; type: cell-based, human; settings: IC50 concentration, 96 h
Description: (§3) CycleTEST™ PLUS DNA Reagent Kit (Becton Dickinson GmbH, Heidelberg, Germany) for cell cycle analysis was used, according to the instructions of the manufacturer. Briefly, the cells were harvested with trypsin, washed with PBS, and resuspended in CycleTEST Buffer. The cells were centrifuged and resuspended in solution A. After incubation for 10 min at room temperature, solution B was added and incubated. After adding solution C, the samples were incubated at 4°C protected from light. The samples were stored on ice and protected from light until analysis by FACScan flow cytometer (Becton Dickinson GmbH, Heidelberg, Germany).

[9] = test system: HepG2; assay: Cell cycle analysis by flow cytometry; type: cell-based, human; settings: IC50 concentration, 96 h
Description: as §3

[10] = test system: CaCo2; assay: Cell cycle analysis by flow cytometry; type: cell-based, human; settings: IC50 concentration, 96 h
Description: as §3

[11] = test system: GammaA3; assay: Cell cycle analysis by flow cytometry; type: cell-based, mouse; settings: IC50 concentration, 96 h
Description: as §3

[12] = test system: BetaD5; assay: Cell cycle analysis by flow cytometry; type: cell-based, mouse; settings: IC50 concentration, 96 h
Description: as §3

[13] = test system: A2C12; assay: Cell cycle analysis by flow cytometry; type: cell-based, mouse; settings: IC50 concentration, 96 h
Description: as §3

[14] = test system: GammaD12; assay: Cell cycle analysis by flow cytometry; type: cell-based, mouse; settings: IC50 concentration, 96 h
Description: as §3

[15] = Mus musculus, 24 h, read-out: Calculated IC50 after single treatment for 24 h
[16] = Mus musculus, 96 h, read-out: Calculated IC50 after daily treatment for 96 h
[17] = 96 h, read-out: Calculated IC50 after daily treatment for 96 h
[18] = 24 h, read-out: Calculated IC50 after single treatment for 24 h
[19] = MTS, 24 h, read-out: Calculated IC50 after single treatment for 24 h
[20] = MTS, 96 h, read-out: Calculated IC50 after daily treatment for 96 h

| SMILES | IC50 [5, 17] [µM] | Cells in G1 phase [8] [%] | Cells in G2 phase [8] [%] | Cells in S phase [8] [%] | Cells in G1 phase [9] [%] | Cells in G2 phase [9] [%] | Cells in S phase [9] [%] | IC50 [1, 18] [µM] | IC50 [1, 17] [µM] | IC50 [2, 18] [µM] | IC50 [2, 17] [µM] | IC50 [3, 18] [µM] | IC50 [3, 17] [µM] | IC50 [4, 19] [µM] | IC50 [4, 20] [µM] | IC50 [5, 18] [µM] | IC50 [6, 18] [µM] | IC50 [6, 17] [µM] | IC50 [7, 18] [µM] | IC50 [7, 17] [µM] | also measured |
| --- | --- | --- | --- | --- | --- | --- | --- | --- | --- | --- | --- | --- | --- | --- | --- | --- | --- | --- | --- | --- | --- |
| Cc1nc(Nc2ncc(C(=O)Nc3c(C)cccc3Cl)s2)cc(N2CCN(CCO)CC2)n1 [Dasatinib, reference compound] | 5.2 ± 2.2 |  |  |  |  |  |  |  |  |  |  |  |  |  |  |  |  |  |  |  | IC50 [1, 15]: 1.18 ± 0.1 µM; IC50 [1, 16]: 0.32 ± 0.07 µM; IC50 [2, 15]: 5.2 ± 0.6 µM; IC50 [2, 16]: 0.84 ± 0.05 µM; IC50 [3, 15]: 9.8 ± 1.5 µM; IC50 [3, 16]: 10.3 ± 1.6 µM; IC50 ([4]; Mus musculus, 96 h, read-out: IC50 (MTS) after treatment for 96 h): 0.8 µM; IC50 ([4]; Mus musculus, MTS, 24 h, read-out: Calculated IC50 after single treatment for 24 h): 2.6 ± 1 µM; IC50 ([5]; Homo sapiens, A549, 24 h, 24 h, read-out: Calculated IC50 after single treatment for 24 h): 39.8 ± 5.8 µM; IC50 ([5]; Homo sapiens, A549, 96 h, 96 h, read-out: Calculated IC50 after daily treatment for 96 h): 5 µM; IC50 ([6]; Homo sapiens, 24 h, read-out: Calculated IC50 after single treatment for 24 h): 26.2 ± 2.8 µM; IC50 ([6]; Homo sapiens, 96 h, read-out: Calculated IC50 after daily treatment for 96 h): 5 ± 0.82 µM; IC50 ([7]; Homo sapiens, Caco-2, 24 h, read-out: Calculated IC50 after single treatment for 24 h): > 100 µM; IC50 ([7]; Homo sapiens, Caco-2, 96 h, read-out: Calculated IC50 after daily treatment for 96 h): 0.44 ± 0.25 µM |
| CCCCNc1nc(SCC)nc2c1cnn2CC(Cl)c1ccccc1 (stereo not drawn) [Si20] | 13.6 ± 1.5 | 78.9 | 4.3 | 16.7 | 61.5 | 7.3 | 31.2 | 21.5 ± 2.3 | 15.5 ± 2.3 | 27 ± 7.9 | 10.4 | 28.1 ± 4.6 | 11.3 ± 0.9 | 17.1 ± 1.5 | 11.3 ± 1.2 | 25.1 ± 2.6 | 56.2 ± 2.1 | 8.1 ± 2.8 | 56.2 ± 2 | 6.5 ± 0.1 | Cells in G1 phase [10]: 61.9%; Cells in G2 phase [10]: 5.2%; Cells in S phase [10]: 32.9%; Cells in G1 phase [11]: 51.9%; Cells in G2 phase [11]: 17.5%; Cells in S phase [11]: 30.8%; Cells in G1 phase [12]: 63.2%; Cells in G2 phase [12]: 24.2%; Cells in S phase [12]: 12.6%; Cells in G1 phase [13]: 55.6%; Cells in G2 phase [13]: 11.3%; Cells in S phase [13]: 33.1%; Cells in G1 phase [14]: 31.4%; Cells in G2 phase [14]: 9.7%; Cells in S phase [14]: 58.9% |
| CCN(CC)c1nc(SC)nc2c1cnn2CC(Cl)c1ccccc1 (stereo not drawn) [Si27] | > 20 |  |  |  |  |  |  | > 100 | > 20 | > 100 | > 20 | > 100 | > 20 | > 100 | > 20 | > 100 | > 100 | 16.2 ± 6.3 | > 100 | > 20 |  |
| CSc1nc(NCc2ccccc2)c2cnn(CC(Cl)c3ccccc3)c2n1 (stereo not drawn) [Si34] | 10.4 ± 0.4 | 67.3 | 5.6 | 27.1 | 52 | 13.2 | 34.7 | 25.2 ± 3.1 | 10.7 ± 0.6 | 37 ± 2.3 | 9.6 ± 0.2 | 32.8 ± 4.8 | 8.3 ± 0.3 | 23.2 ± 2.5 | 8.8 ± 1.4 | 69.5 ± 27.7 | 58.5 ± 3 | 26.7 ± 4.8 | 58.2 ± 4.2 | 5.9 ± 0.1 | Cells in G1 phase [10]: 52.9%; Cells in G2 phase [10]: 10.5%; Cells in S phase [10]: 36.7%; Cells in G1 phase [11]: 68.6%; Cells in G2 phase [11]: 16.8%; Cells in S phase [11]: 14.6%; Cells in G1 phase [12]: 65.8%; Cells in G2 phase [12]: 23.1%; Cells in S phase [12]: 11.1%; Cells in G1 phase [13]: 74.5%; Cells in G2 phase [13]: 9.7%; Cells in S phase [13]: 15.7%; Cells in G1 phase [14]: 36.2%; Cells in G2 phase [14]: 7.9%; Cells in S phase [14]: 55.9% |
